# Results published in patent US11230688B2, “In vitro gastrointestinal model comprising lamina propria-derived cells” (EMULATE, Inc., priority 2016, dated 2022).
# Read-outs that look alike come from different tables or passages of the source.
# Columns and labels:
# [1] = test system: microfluidic co-cultures of Caco-2 epithelial cells, HUVECs and LPDCs; test: Gut-On-Chip cytokine and chemokine production in co-cultures with lamina propria-derived cells; format: cell-based, human
# Procedure: An exemplary bacteria antigen used was PAM2CSK4. […] PAM2CSK4 refers to a synthetic diacylated lipopeptide.
# In order to determine contributory factors to the trends in permeability changes observed by combinations of prednisone treatments as in Example 5, cytokine and chemokine production were measured from media samples obtained from the microfluidic cultures as described in EXAMPLE 5. After an incubation time, media samples were extracted from the microfluidic device then used for determining amounts cytokine and chemokine produced, such as IL-6 and IL-9 in FIG. 18A-B; IL-8 and G-CSF in FIG. 19A-B; GM-CSF and MCP-1 in FIG. 20A-B; MIP1b and PDGF-AB/BB in FIG. 21A-B; and RANTES in FIG. 22. Amounts of cytokine and chemokine protein are measure in pg/ml (picogram per milliliter).
# [2] = test system: Ulcerative Colitis; settings: cited from earlier work
# [3] = test system: Caco-2 epithelial cell layer; test: Gut-On-Chip barrier function (apparent permeability, Papp) with lamina propria-derived cells; settings: for Loss of barrier function: PAM2CSK4, overnight incubation
# Description: (§1) This permeability assay method for adsorption across a gut wall, i.e. caco-2 cells in a gut-on-chip, measures the rate of transport of a test compound added to the basal side of the membrane, for example, inulin-FITC, across to the apical side. […] Conversely, adding a test compound to the apical side may also be used to measure transport to the basal side.
# (§2) The Gut-On-Chip modeling of inflammation was used for testing bacterial antigen effects on barrier function and cytokine production. An exemplary bacteria antigen used was PAM2CSK4. […] PAM2CSK4 refers to a synthetic diacylated lipopeptide.
# (§3) A co-culture configured as described herein was incubated in a device of the present inventions as described in FIG. 7.
# (§4) Cultivation of Caco-2 cells in microfluidic device: Caco-2 cell monolayers were seeded as described herein. Basal regions of cells were exposed to medium under flow. […] Experimental procedure: Cells were used for this experiment between days 7 and 9 post seeding. Donor solutions (including a 100 μg/ml Inulin-FITC) were prepared, and solutions used in this experiment were prewarmed to 37° C. Inulin-FITC was used as an indicator for the determination of the monolayer integrity. […] Inulin-FITC method: 6 mM Inulin-FITC may be added into an apical region of a monolayer; and incubated for 1 hr. A standard curve may be prepared in a separate container, e.g. a 0.5 to 50 μM; HBSS blank containing 1 to 0.5% DMS0 is placed in wells; Aliquots of 200 μl are transferred from the separate container to a solid black plate; Aliquots of 50 μl are transferred from the device to a solid black plate containing 50 μl HBSS with 1-0.5% DMSO; Plates may be read in a fluorescent reader (Excitation/Emission wavelength 480/530 nm); LY rejection (Pc) values are calculated. V. Molecule transport assay: Transport of a molecule across the monolayer may also be determined; a test compound may be added at the apical region of the monolayer then removed from the apical and/or basal media then analyzed using LC-MS method for loss (e.g. apical region) or gain (e.g. basal region).
# (§5) Microfluidic co-cultures with HUVEC cells in the bottom chamber, LPDCs from human non-inflamed regions of UC tissue biopsies, LPDCs from UC inflamed tissue biopsies, and samples with no LPDCs, were overlaid with Caco-2 epithelial cell layers.
# [4] = test system: microfluidic co-cultures of Caco-2 epithelial cells, HUVECs and LPDCs; test: Gut-On-Chip cytokine and chemokine production in co-cultures with lamina propria-derived cells; format: cell-based, human; remark: listed apart in the source
# [5] = test system: Intestine On-Chip with TH1 or TH9 populations; test: Intestine On-Chip seeded with plate-differentiated TH1 or TH9 cells, soluble reagents: cytokine production and gene expression; format: cell-based, human; settings: for IL-10 secretion: TH9 populations
# Description: Experiments were designed to evaluate whether anti-CD3 and anti-CD28 co-stimulatory activation (soluble reagents) on chip would stimulate on chip T cells (previously activated and differentiated on plates) to continue functioning as activated effector cells within the chip tissue microenvironment. Further, TH1 and TH9 T cell populations underwent testing for an exacerbated response (either tissue alterations or changes in the characteristics of the T cell population) to a specific antigen stimulation, e.g. PAM2CSK4 (TLR2) bacterial agonist, with or without additional co-stimulation (i.e. using soluble reagents). Stimulation on-chip was done as a treatment on Day 7 of culture.
# In this example, a TH1 cell population was produced from a population of mature/naive CD4+ T cells, as described in Example 7. This population of CD4+ T cells were co-stimulated with adhered CD3 and soluble CD28 antibodies, without added cytokines, for inducing differentiation of TH1 cells on plates. Unlike co-stimulation with adhered CD3 and soluble CD28 antibodies in the presence of TGFB IL-4, and IFNg cytokines which induced differentiation of TH9 cells, as described herein. Thus, in this example, purified CD4+ T cell populations were plated into tissue culture plates for activation and differentiation into one selected T cell subtype, e.g. TH1 in one plate, and TH9 in another plate.
# In order to further test whether PBMCs activated and differentiated with soluble factors were capable of inducing inflammation on chips, pro-inflammatory cytokine production was compared between untreated, PAM2CSK4 treated with and without Tofacitinib. […]
# Evaluation of the effects of T-cell activation on the Intestine On-Chip by perfusion of soluble immune activating factors (anti-CD3 and anti-CD2) to the media is shown in FIGS. 36A-B-39A-C. In particular, activated T-cell subsets were evaluated for disease-specific cytokine production.
# [6] = test system: TH1 and TH9 CD4+ T cell populations; test: On-plate bacterial antigen stimulation of differentiated CD4+ T cell subsets (cytokines, IL-9 activation factors); format: cell-based, human
# Description: In this example, a TH1 cell population was produced from a population of CD4+ T cells obtained from a sample of PBMCs. This population of CD4+ T cells were co-stimulated with soluble CD3 and CD28 antibodies without added cytokine stimulation for inducing differentiation of TH1 cells. Unlike the co-stimulation with soluble CD3 and CD28 antibodies in the presence of TGFB, IL-4, and IFNg cytokines for inducing differentiation of TH9 cells as described herein.
# Thus, in this example, purified CD4+ T cell populations were plated into tissue culture plates for activation and differentiation into one selected T cell subtype, e.g. Th1 in one plate, and Th2 in another plate.
# A sample of each TH cell type was exposed to PAM2CSK4, then log 2 fold changes in protein expression of either pathway molecules or IL-9 were measured and compared to duplicate samples not treated with PAM2CSK4.
# [7] = test system: Caco-2 epithelial cell layer
# Description: as §1, §2, §3, §4, §5
# [8] = test system: Caco-2 epithelial layer
# Description: The chips treated with PAM2CSK4 as a model bacterial antigen are considered infected chips.
# [9] = test system: resident immune cells from healthy and UC patient LP tissue; test: Secreted cytokine production of resident immune cells cultured on plates, 24 hour bacterial challenge; format: cell-based, human; settings: immune cells from inflamed UC tissue
# [10] = Prednisone alone, non-inflamed LPDC cultures
# [11] = prednisone, inflamed LPDCs, with and without PAM2CSK4
# [12] = prednisone, non-inflamed and inflamed LPDCs treated with PAM2CSK4
compound,measurement,setting,value
C[C@]12C=CC(=O)C=C1CC[C@@H]1[C@@H]2C(=O)C[C@@]2(C)[C@H]1CC[C@]2(O)C(=O)CO [prednisone],PDGF-AA/BB production,[1]; Prednisone alone,did not appear to be a reduction in PDGF-AA/BB
same,GM-CSF production,[1]; [10],did not appear to be a reduction in GM-CSF
same,MCP-1 production,[1]; [10],did not appear to be a reduction in MCP-1
same,IL-8 production,"[1]; non-inflamed LPDC cultures, Prednisone alone or PAM2CSK4",did not appear to be a reduction in IL-8
same,IL-9 production,[1]; prednisone on PAM2CSK4-increased IL-9,significantly reduced
same,IL-6 production,"[1]; prednisone, inflamed LPDCs, endogenous or induced by PAM2CSK4",reduce IL-6 production
same,GM-CSF production,[1]; [11],reduced GM-CSF production
same,IL-8 production,[1]; [11],trend for reducing IL-8 production
same,MCP-1 production,[1]; [11],reduced MCP-1 production
same,IL-6 production,"[1]; prednisone, non-inflamed LPDCs",does not appear to have an effect
same,PDGF-AA/BB production,"[1]; prednisone, non-inflamed LPDCs",trend for reducing PDGF-AA/BB production
same,PDGF-AA/BB production,[1]; [12],trend for reducing PDGF-AA/BB production
same,RANTES production,[1]; [12],trend for reducing RANTES production
same,IL-9 production,"[1]; prednisone, non-inflamed and inflamed UC LPDC, regardless of PAM2CSK4",reduced
same,G-CSF production,"[1]; prednisone, non-inflamed or inflamed LPDCs, with and without PAM2CSK4",trend for reducing G-CSF production
same,Inflammatory responses (secreted cytokine production) to PAM2CSK4 treatment,"[1]; prophylactic prednisone, UC patient's resident immune cells, noninflamed and inflamed tissues",suppresses the inflammatory responses
same,treated patients non-responsive,[2],around 16%
same,treated patients with full remission,[2],~54%
same,treated patients with partial remission,[2],~30%
same,Permeability (Papp),"[3]; FIG. 17A, prednisone, at least one patient sample of non-inflamed LPDCs",some benefit in reducing permeability
same,Permeability (Papp),"[3]; FIG. 17A, prednisone, at least one patient sample with inflamed UC LPDC",undesirable increase
same,Permeability (Papp),"[3]; FIG. 17B, overnight, prednisone, inflamed UC LPDCs",did not induce an increase in permeability
same,Permeability (Papp),"[3]; FIG. 17B, overnight, prednisone, non-inflamed UC LPDC",undesirable increase in permeability
same,Permeability (Papp),"[3]; overnight, prednisone, inflamed UC LPDC samples",both an increase and a decrease in permeability
same,Permeability (Papp),"[3]; prednisone and PAM2CSK4, inflamed UC LPDC",little benefit
same,Permeability (Papp),"[3]; prednisone and PAM2CSK4, non-inflamed UC LPDC",range of responses
same,"Permeability (Papp), trend",[3]; prednisone and bacterial antigen,trend for decreasing permeability
same,"Permeability (Papp), trend","[3]; prednisone, inflamed UC LPDC",little difference from the non-inflamed LPDC sample
same,"Permeability (Papp), trend","[3]; prednisone, non-inflamed UC LPDC",increased permeability
same,"Permeability (Papp), effect on average","[3]; prednisone, non-inflamed or inflamed UC LPDC",no significant effect
PAM2CSK4,IL-6 production,"[1]; 1, 2 and 4 LP mil/ml, versus co-cultures with no PAM2CSK4",induced a higher level of IL-6 production
same,IL-9 production,"[1]; LP leukocyte co-cultures for each source (healthy, UC non-inflamed, UC inflamed)",induce IL-9
same,IL-6 production,"[1]; PAM2CSK4, inflamed LPDC samples",increased IL-6 production
same,IL-6 production,"[1]; PAM2CSK4, non-inflamed LPDC samples",not with the non-inflamed LPDC samples
same,IL-9 production,"[1]; PAM2CSK4, non-inflamed and inflamed LPDC co-cultures, over endogenous levels",significantly induced IL-9 production
same,Apical IL-9 cytokine secretion,"[1]; apical regions, 4 LP mil/ml",not at 4 LP mil/ml
same,IL-9 production,[1]; epithelial cells without LP cells,not in epithelial cells without LP cells
same,IL-6 production,[1]; healthy LP leukocyte co-cultures and epithelial cells without LP,induce an IL6 response
same,Basal IL-9 cytokine secretion,"[4]; 4 LP mil/ml, basal areas",induced a higher level of IL-9 production
same,Apical IL-9 cytokine secretion,"[4]; apical regions, 1 and 2 LP mil/ml",increased with PAM2CSK4 treatment
same,IL-10 secretion,[5]; Pam stimulated vs unstimulated,no insignificant differences
same,IL-8,[5]; antigen specific stimulation (TLR2 agonist) on activated TH1 and TH9 chips,increased
same,GATA3 and SPI1 (log 2 fold change),"[6]; PAM2CSK4, TH1 populations",not GATA3 car SPI11
same,IL-9 mRNA concentrations,"[6]; PAM2CSK4, TH1 populations",did significantly increase
same,IRF4 and IL-9 (log 2 fold change),"[6]; PAM2CSK4, TH1 populations",produce measurable IRF4 and IL-9
same,IL-9 and IL-9 activation factors (log 2 fold changes),"[6]; PAM2CSK4, TH9 populations in tissue culture plate",did not significantly increase IL-9
same,Cytokine protein expression post differentiation,"[6]; soluble PAM2CSK4, TH1 (CD) and TH9 (UC) cells on-plates",increases in the concentration of protein signaling
same,Permeability (Papp),[7],show an increase in permeability
same,Avg. Z Height of Caco-2 epithelial layer,[8],84 um+/−11
same,Loss of barrier function,[3]; 4 LP mil/ml,Loss of barrier function is shown
same,Loss of barrier function,[3]; LP 1 mil/ml or LP 2 mil/ml,not at LP 1 mil/ml or LP 2 mil/ml
same,"Response to TLR2 activation (secreted TNF alpha, IL-6, IL-8)",[9],stronger response
Tofacitinib (citrate),IL-10 secretion,[5]; mixture of PAM2CSK4 and Tofacitinib vs unstimulated,induced significant amounts
